For data set [1], the system named is Plasmodium falciparum. The data set can be described thus: Inhibition of Plasmodium falciparum DXR at 20 uM using DOXP as substrate preincubated for 5 mins followed by substrate addition measured for 10 mins in presence of NADPH by spectrophotometric analysis.
Data set [2] concerns Plasmodium falciparum. The data set can be described thus: Antimalarial activity against Plasmodium falciparum 3D7 infected in human erythrocytes assessed as cell viability at 20 uM after 48 hrs by lactate dehydrogenase assay. The data set is classed as functional.
Data set [3] can be described thus: Cytotoxicity against human HeLa cells assessed as cell viability at 20 uM after 24 hrs by resazurin based fluorescence assay relative to control. The format is toxicity. The conditions noted are these: read-out: Activity. Background: Resazurin is reduced to fluorescent resorufin, in cell work by metabolically active cells.
The test system of data set [4] is Plasmodium falciparum. The data set can be described thus: Antimalarial activity against Plasmodium falciparum 3D7 infected in human erythrocytes after 48 hrs by lactate dehydrogenase assay. The format is functional, cell-based. The following applies: 3D7, 48 h.

We go through 20 compounds from ChEMBL document CHEMBL3862027, “Synthesis and antimalarial activity of N-benzylated (N-arylcarbamoyl)alkylphosphonic acid derivatives” (Bioorg Med Chem, 2016).

By inhibition is commonly meant the percentage by which the read-out fell short of the control. The IC50 is the concentration at which inhibition is half-maximal. A lower IC50 goes with greater potency in that assay.

For the compound `O=C(CCP(=O)(O)O)N(Cc1ccccc1)c1cccc(O)c1`, in the data set with Plasmodium falciparum [1], the inhibition turned out to be 0%.

On to `CCOP(=O)(CC(=O)Nc1cccc([N+](=O)[O-])c1)OCC`, for which the Activity in the data set on Plasmodium falciparum [2] came out at 64.13%. The viability at 24 h, 20 µM in data set [3] stood at 83.1%.

As to `CCOP(=O)(CCC(=O)Nc1cccc(O)c1)OCC`, the Activity with Plasmodium falciparum [2] was determined as 54.54%. Besides, the viability at 24 h, 20 µM in data set [3] amounted to 119%.

With `CCOP(=O)(CC(=O)Nc1cccc(O[Si](C)(C)C(C)(C)C)c1)OCC`, the Activity with Plasmodium falciparum [2] is recorded as 61.87%. In addition, in data set [3], the viability at 24 h, 20 µM stood at 85.7%.

Regarding `C#CCNC(=O)CCP(=O)(OCC)OCC`, in the data set on Plasmodium falciparum [2], the Activity is -4.04%. The IC50 with Plasmodium falciparum [4] was found to be 20.1 µM. For the same compound, the viability at 24 h, 20 µM in data set [3] worked out at 92%.

With `CC(=O)N(O)CCCP(=O)(O)O`, the inhibition in the data set with Plasmodium falciparum [1] was determined as 73.3%.

As for `CCOP(=O)(CCC(=O)N(Cc1ccccc1)c1cccc(Br)c1)OCC`, the Activity in the data set on Plasmodium falciparum [2] was found to be 35.19%. The viability at 24 h, 20 µM in data set [3] stood at 121%.

As for `CCOP(=O)(CCC(=O)Nc1cccc(OCc2ccccc2)c1)OCC`, the Activity in the data set with Plasmodium falciparum [2] was 51.13%. Also, the viability at 24 h, 20 µM in data set [3] stood at 105%.

As to `CCOP(=O)(CC(=O)Nc1cccc(O)c1)OCC`, in the data set on Plasmodium falciparum [2], the Activity is on record as 52.42%. Also, the viability at 24 h, 20 µM in data set [3] came out at 117%.

Take `CCOP(=O)(CC(=O)Nc1ccccn1)OCC`: the Activity with Plasmodium falciparum [2] is listed as -19.39%. For the same compound, the IC50 with Plasmodium falciparum [4] amounted to 23.1 µM. Further, in data set [3], the viability at 24 h, 20 µM came to 131%.

Turning to `CCOP(=O)(CC(=O)Nc1cccc(CO)c1)OCC`, the Activity with Plasmodium falciparum [2] is given as -7.26%. For the same compound, in the data set with Plasmodium falciparum [4], 10.1 µM corresponded to half-maximal inhibition (IC50). The viability at 24 h, 20 µM in data set [3] is 123%.

For `C#CCNC(=O)CP(=O)(OCC)OCC`, the Activity in the data set with Plasmodium falciparum [2] was determined as 47.96%. Also, the viability at 24 h, 20 µM in data set [3] amounted to 104%.

As to `CCOP(=O)(CCC(=O)N(Cc1ccccc1)c1cccc([N+](=O)[O-])c1)OCC`, the Activity in the data set on Plasmodium falciparum [2] is listed as 59.6%. Besides, the viability at 24 h, 20 µM in data set [3] turned out to be 118%.

Consider `CCOP(=O)(CCC(=O)N(Cc1ccccc1)c1cccc(O)c1)OCC`, for which the Activity with Plasmodium falciparum [2] was -8.05%. The IC50 in the data set on Plasmodium falciparum [4] is 15.8 to 15.9 µM. The viability at 24 h, 20 µM in data set [3] stood at 120%.

Regarding `O=C(CCP(=O)(O)O)N(Cc1ccccc1)c1ccccn1`, in the data set on Plasmodium falciparum [1], the inhibition stood at 0%.

As for `CCOP(=O)(CCC(=O)N(Cc1ccccc1)c1cccc(OCc2ccccc2)c1)OCC`, the Activity in the data set with Plasmodium falciparum [2] amounted to 6.84%. Also, in the data set with Plasmodium falciparum [4], the IC50 turned out to be 16.4 µM. Further, in data set [3], the viability at 24 h, 20 µM is 108%.

Regarding `C#CCNC(=O)CCP(=O)(O)O`, the inhibition with Plasmodium falciparum [1] is 6.7%.

Turning to `CCOP(=O)(CCC(=O)N(Cc1ccccc1)c1cccc(CO)c1)OCC`, the Activity in the data set with Plasmodium falciparum [2] was determined as 55.44%. Moreover, the viability at 24 h, 20 µM in data set [3] amounted to 110%.

Regarding `CCOP(=O)(CCC(=O)N(Cc1ccccc1)c1ccccn1)OCC`, the Activity in the data set with Plasmodium falciparum [2] was -5.33%. Further, 22.3 µM corresponded to half-maximal inhibition with Plasmodium falciparum [4] (IC50). Further, in data set [3], the viability at 24 h, 20 µM amounted to 113%.

As for `CCOP(=O)(CC(=O)Nc1cccc(Br)c1)OCC`, in the data set on Plasmodium falciparum [2], the Activity is given as 50.91%. In data set [3], the viability at 24 h, 20 µM turned out to be 102%.
